Test results taken from ChEMBL document CHEMBL1201862, “PubChem BioAssay data set” (2004).
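Five compound concentrations were applied to cells in 96-well plates for 48 hours; endpoints were derived by simple linear interpolation of the resulting dose-response curve. The concentration for 50% growth inhibition is given as GI50.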 Calls of active or inactive are those of the source. Cut-off read from the data, not from the text of the source: active = GI50 up to about 1.1 µM and inactive = higher.

Assays:
Assay in all cases: growth of human tumour cells (NCI), 48 h
[1] = test system: K562
[2] = test system: TK-10
[3] = test system: NCI-H23
[4] = test system: NCI-H522
[5] = test system: SF-295
[6] = test system: OVCAR-3
[7] = test system: SR
[8] = test system: HOP-92
[9] = test system: HT-29
[10] = test system: OVCAR-5
[11] = test system: HCT-116
[12] = test system: COLO 205
[13] = test system: OVCAR-8
[14] = test system: UACC-62
[15] = test system: EKVX
[16] = test system: HOP-62
[17] = test system: IGROV-1
[18] = test system: A498

Measured: GI50

COc1cc(C=C2C(=O)OC(C)(C)OC2=O)cc(OC)c1OC
inactive: [1] > 100 µM | [2] > 100 µM | [3] > 100 µM | [4] > 100 µM | [5] > 100 µM | [6] > 100 µM | [7] > 100 µM | [8] > 100 µM | [9] > 100 µM | [10] > 100 µM | [11] > 100 µM | [12] > 100 µM | [13] > 100 µM | [14] > 100 µM | [15] > 100 µM

N#CC1CCCCCCCCCCC(=O)N(CCCl)C1=O (stereo not drawn)
inactive: [16] > 100 µM | [1] > 100 µM | [2] > 100 µM | [3] > 100 µM | [4] > 100 µM | [17] > 100 µM | [5] > 100 µM | [6] > 100 µM | [8] > 100 µM | [9] > 100 µM | [18] > 100 µM | [10] > 100 µM | [12] > 100 µM | [13] > 100 µM | [14] > 100 µM | [15] > 100 µM

CN(C)CCC(O)(c1ccccc1)C(O)(CCN(C)C)c1ccccc1 (stereo not drawn)
inactive: [16] > 100 µM | [1] 48.9 µM | [2] > 100 µM | [3] > 100 µM | [4] > 100 µM | [17] > 100 µM | [5] 53.7 µM | [6] > 100 µM | [9] 94 µM | [18] > 100 µM | [10] > 100 µM | [12] 72.9 µM | [13] > 100 µM | [14] > 100 µM | [15] > 100 µM

C=CCCCN1CCCCC1=S
inactive: [16] > 100 µM | [1] > 100 µM | [2] > 100 µM | [3] > 100 µM | [4] > 100 µM | [17] > 100 µM | [5] > 100 µM | [6] > 100 µM | [7] > 100 µM | [8] > 100 µM | [9] > 100 µM | [10] > 100 µM | [11] > 100 µM | [12] > 100 µM | [13] > 100 µM | [14] > 100 µM | [15] > 100 µM

O=C(O)C(CO)NC(=O)n1c2ccccc2c2ccccc21 (stereo not drawn)
inactive: [16] > 100 µM | [1] > 100 µM | [2] > 100 µM | [3] > 100 µM | [4] > 100 µM | [17] > 100 µM | [5] > 100 µM | [6] > 100 µM | [7] > 100 µM | [8] > 100 µM | [9] > 100 µM | [11] > 100 µM | [12] > 100 µM | [13] > 100 µM | [14] > 100 µM | [15] > 100 µM

CC1C(c2ccccc2)N(C)C(c2ccccc2)C(C)C1(O)c1ccccc1 (stereo not drawn)
inactive: [16] > 100 µM | [1] > 100 µM | [2] > 100 µM | [3] > 100 µM | [4] > 100 µM | [17] > 100 µM | [5] 46.7 µM | [6] 51.4 µM | [8] 83.9 µM | [9] 55.8 µM | [18] 42.3 µM | [10] > 100 µM | [11] 26.4 µM | [12] 20 µM | [13] > 100 µM | [14] > 100 µM | [15] > 100 µM

c1ccc2c(c1)CCc1cc3cc4c(nc3nc1-2)-c1ccccc1CC4
inactive: [16] > 100 µM | [1] > 100 µM | [2] > 100 µM | [3] > 100 µM | [4] > 100 µM | [17] > 100 µM | [5] > 100 µM | [6] > 100 µM | [7] > 100 µM | [9] > 10 µM | [11] > 100 µM | [12] > 100 µM | [13] > 100 µM | [14] > 100 µM | [15] > 100 µM

COc1cc2c(cc1OCc1ccccc1)CNCC2
inactive: [16] > 100 µM | [1] > 100 µM | [2] > 100 µM | [3] > 100 µM | [4] > 100 µM | [17] > 100 µM | [5] > 100 µM | [6] > 100 µM | [8] 23.6 µM | [9] > 100 µM | [18] > 100 µM | [10] > 100 µM | [11] > 100 µM | [12] > 100 µM | [13] > 100 µM | [14] > 100 µM | [15] > 100 µM

Cc1ccc(Cl)c2c(=O)cc(-c3ccccc3)[nH]c12
inactive: [16] 54.3 µM | [1] 49.2 µM | [2] 70.6 µM | [3] 59.7 µM | [4] 63.7 µM | [17] 85.3 µM | [5] 55.8 µM | [7] 25.1 µM | [8] 38.8 µM | [9] 50.4 µM | [10] 71.6 µM | [11] 58.5 µM | [12] > 100 µM | [13] > 100 µM | [14] 42.5 µM

NC(=S)N1N=C2CCCCCC[C@@H]2[C@H]1c1ccccc1
inactive: [16] > 100 µM | [1] 32.8 µM | [2] 63 µM | [3] 40.2 µM | [4] 21.2 µM | [17] 63.2 µM | [5] 35.3 µM | [6] 39.3 µM | [9] 29.2 µM | [18] 75 µM | [10] > 100 µM | [11] 43.1 µM | [12] 46.7 µM | [13] 44.5 µM | [14] 44.1 µM | [15] 27.7 µM

O=C1Nc2c(ccc(Cl)c2I)C1=O
inactive: [16] 20.8 µM | [1] 23.8 µM | [2] 36.2 µM | [3] 14.6 µM | [4] 15.6 µM | [17] 16.6 µM | [5] 19.2 µM | [6] 19.9 µM | [7] 18.8 µM | [9] 28.4 µM | [10] 20 µM | [11] 19.1 µM | [12] 16.3 µM | [13] 28.2 µM | [14] 17.6 µM | [15] 16.4 µM

Cc1cc(Cl)ccc1NC(=O)C1C(=O)N(c2ccc(Cl)cc2C)C(=O)/C1=N\NC(N)=S (stereo not drawn)
inactive: [16] 21.3 µM | [1] 23.6 µM | [2] 47.9 µM | [3] 19.8 µM | [4] 17.1 µM | [5] 29.9 µM | [6] 32.8 µM | [8] 23.7 µM | [9] 18.7 µM | [18] 23.6 µM | [10] 24.3 µM | [11] 21.9 µM | [12] 32.1 µM | [13] 41.9 µM | [14] 31.6 µM | [15] 22.6 µM

O=C1C(Cl)=C(NCCOCCO)C(=O)c2c(O)ccc(O)c21
inactive: [16] 20 µM | [1] 2.65 µM | [2] 13.6 µM | [3] 1.88 µM | [4] 1.98 µM | [17] 5.6 µM | [5] 11.6 µM | [7] 6.53 µM | [8] 24.3 µM | [9] 3.08 µM | [10] 19.5 µM | [11] 2.86 µM | [12] 2.17 µM | [13] 7.36 µM | [14] 3.24 µM

O=C(Nc1cc(Cl)ccc1Cl)c1cc2cccc(Cl)c2oc1=O
inactive: [16] > 100 µM | [1] > 100 µM | [2] > 100 µM | [3] > 100 µM | [4] > 100 µM | [17] > 100 µM | [5] > 100 µM | [6] > 100 µM | [9] > 100 µM | [11] > 100 µM | [12] > 100 µM | [13] 47.1 µM | [14] > 100 µM | [15] > 100 µM

CC(=O)NC1=C(N)C(=O)c2ccccc2C1=O
inactive: [16] > 100 µM | [1] 57.5 µM | [2] > 100 µM | [3] 59.2 µM | [4] 79.4 µM | [17] > 100 µM | [5] > 100 µM | [6] 20.2 µM | [8] > 100 µM | [9] 65.8 µM | [18] > 100 µM | [10] > 100 µM | [11] 17.7 µM | [12] 30.5 µM | [13] > 100 µM | [14] 49.8 µM | [15] > 100 µM

CC1=C(C(=O)Nc2ccccc2C)C(c2ccco2)C(C(=O)Nc2ccccc2C)=C(C)N1C
inactive: [16] > 100 µM | [1] 85.5 µM | [2] > 100 µM | [3] > 100 µM | [4] > 100 µM | [17] > 100 µM | [5] > 100 µM | [6] > 100 µM | [7] 72.8 µM | [8] > 100 µM | [9] > 100 µM | [10] > 100 µM | [11] > 100 µM | [13] > 100 µM | [14] > 100 µM | [15] > 100 µM

CCc1cccc(C)c1NC(C)=O
inactive: [16] > 100 µM | [1] > 100 µM | [2] > 100 µM | [3] > 100 µM | [17] > 100 µM | [5] > 100 µM | [6] > 100 µM | [9] > 100 µM | [18] > 100 µM | [10] > 100 µM | [11] > 100 µM | [13] > 100 µM | [14] > 100 µM | [15] > 100 µM

O=C(c1cccs1)N(C(=S)N1CCN(c2ccccn2)CC1)c1ccccc1
inactive: [16] > 100 µM | [1] > 100 µM | [2] > 100 µM | [3] > 100 µM | [4] 36.2 µM | [17] > 100 µM | [5] 80.4 µM | [6] > 100 µM | [7] > 100 µM | [8] > 100 µM | [9] > 100 µM | [10] > 100 µM | [11] 56.2 µM | [12] > 100 µM | [13] 81.7 µM | [14] 46.5 µM
